Test results published in ChEMBL document CHEMBL1136709, “Synthesis and estrogen receptor binding affinities of 7-hydroxy-3-(4-hydroxyphenyl)-4H-1-benzopyran-4-ones containing a basic side chain” (Bioorg Med Chem Lett, 2003).

Molecular target: T1, Estrogen receptor (Homo sapiens, UniProt P03372)
T1 sequence (P03372 whole entry): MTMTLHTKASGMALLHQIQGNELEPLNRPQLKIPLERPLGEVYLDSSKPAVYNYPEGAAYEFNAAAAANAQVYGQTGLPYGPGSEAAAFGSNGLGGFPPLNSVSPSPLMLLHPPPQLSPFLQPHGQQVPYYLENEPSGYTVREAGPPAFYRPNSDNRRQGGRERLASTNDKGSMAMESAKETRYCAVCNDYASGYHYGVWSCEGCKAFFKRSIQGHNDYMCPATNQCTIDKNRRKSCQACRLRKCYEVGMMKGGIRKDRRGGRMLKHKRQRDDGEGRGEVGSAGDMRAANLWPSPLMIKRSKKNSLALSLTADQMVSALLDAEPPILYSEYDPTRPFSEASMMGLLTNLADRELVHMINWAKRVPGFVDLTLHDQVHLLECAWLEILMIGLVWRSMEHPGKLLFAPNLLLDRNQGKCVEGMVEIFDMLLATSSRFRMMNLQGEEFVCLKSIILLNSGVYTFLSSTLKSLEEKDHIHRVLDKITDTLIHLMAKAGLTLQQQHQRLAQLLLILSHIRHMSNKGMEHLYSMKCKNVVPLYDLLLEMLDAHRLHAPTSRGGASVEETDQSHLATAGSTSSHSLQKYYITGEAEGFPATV
Experiment: Binding affinity for Estrogen receptor alpha

Ki [nM] | SMILES | EC50 [nM]
 | O=c1c(-c2ccc(O)cc2)c(Sc2ccc(O)cc2)oc2cc(O)ccc12 | 1860
 | O=c1c(-c2ccc(O)cc2)c(Oc2ccc(OCCN3CCCCC3)cc2)oc2cc(O)ccc12 | 200
 | O=c1c(-c2ccc(O)cc2)c(Sc2ccc(OCCN3CCCCC3)cc2)oc2cc(O)ccc12 | 770
3.9 | O=C(c1ccc(OCCN2CCCCC2)cc1)c1oc2cc(O)ccc2c(=O)c1-c1ccc(O)cc1 | 
 | O=c1c(-c2ccc(O)cc2)c(Oc2ccc(O)cc2)oc2cc(O)ccc12 | 1740
